From ChEMBL document CHEMBL1149623, “Identification of antibacterial and antiviral activities of novel fused 1,2,4-triazine esters” (2007)

Key:
[1] = Cytotoxicity against monkey GMK cells at 200 ug/mL after 120 hrs by MTT assay; format: functional, Chlorocebus aethiops
[2] = Cytotoxicity against monkey GMK cells at 25 ug/mL after 48 hrs by MTT assay; format: functional, Chlorocebus aethiops
[3] = system: HEK293; experiment: Cytotoxicity against human HEK293 cells at 10 ug/mL after 96 hrs by MTT assay; format: functional
[4] = system: HEK293; experiment: Cytotoxicity against human HEK293 cells at 200 ug/mL after 120 hrs by MTT assay; format: functional
[5] = system: HEK293; experiment: Cytotoxicity against human HEK293 cells at 25 ug/mL after 72 hrs by MTT assay; format: functional
[6] = system: HEK293; experiment: Cytotoxicity against human HEK293 cells at 200 ug/mL after 72 hrs by MTT assay; format: functional
[7] = system: HEK293; experiment: Cytotoxicity against human HEK293 cells at 2.5 ug/mL after 72 hrs by MTT assay; format: functional
[8] = system: HEK293; experiment: Cytotoxicity against human HEK293 cells at 25 ug/mL after 120 hrs by MTT assay; format: functional
[9] = Cytotoxicity against monkey GMK cells at 200 ug/mL after 48 hrs by MTT assay; format: functional, Chlorocebus aethiops
[10] = Cytotoxicity against monkey GMK cells at 5 ug/mL after 72 hrs by MTT assay; format: functional, Chlorocebus aethiops
[11] = system: HEK293; experiment: Cytotoxicity against human HEK293 cells at 50 ug/mL after 120 hrs by MTT assay; format: functional
[12] = system: HEK293; experiment: Cytotoxicity against human HEK293 cells at 100 ug/mL after 48 hrs by MTT assay; format: functional
[13] = Cytotoxicity against monkey GMK cells at 5 ug/mL after 96 hrs by MTT assay; format: functional, Chlorocebus aethiops
[14] = Cytotoxicity against monkey GMK cells at 50 ug/mL after 24 hrs by MTT assay; format: functional, Chlorocebus aethiops
[15] = system: HEK293; experiment: Cytotoxicity against human HEK293 cells at 200 ug/mL after 24 hrs by MTT assay; format: functional
[16] = Cytotoxicity against monkey GMK cells at 25 ug/mL after 96 hrs by MTT assay; format: functional, Chlorocebus aethiops
[17] = system: HEK293; experiment: Cytotoxicity against human HEK293 cells at 100 ug/mL after 72 hrs by MTT assay; format: functional
[18] = Cytotoxicity against monkey GMK cells at 100 ug/mL after 72 hrs by MTT assay; format: functional, Chlorocebus aethiops
[19] = Cytotoxicity against monkey GMK cells at 50 ug/mL after 96 hrs by MTT assay; format: functional, Chlorocebus aethiops
[20] = system: HEK293; experiment: Cytotoxicity against human HEK293 cells at 50 ug/mL after 96 hrs by MTT assay; format: functional
[21] = system: Echovirus E9; experiment: Antiviral activity against Human echovirus 9 in GMK cells assessed as virus titre at 100 ug/mL after 1 hr; format: functional
[22] = system: HEK293; experiment: Cytotoxicity against human HEK293 cells at 2.5 ug/mL after 120 hrs by MTT assay; format: functional
[23] = system: HEK293; experiment: Cytotoxicity against human HEK293 cells at 25 ug/mL after 96 hrs by MTT assay; format: functional
[24] = system: HEK293; experiment: Cytotoxicity against human HEK293 cells at 200 ug/mL after 96 hrs by MTT assay; format: functional
[25] = system: HEK293; experiment: Cytotoxicity against human HEK293 cells at 5 ug/mL after 96 hrs by MTT assay; format: functional
[26] = Cytotoxicity against monkey GMK cells at 200 ug/mL after 72 hrs by MTT assay; format: functional, Chlorocebus aethiops
[27] = system: HEK293; experiment: Cytotoxicity against human HEK293 cells at 2.5 ug/mL after 24 hrs by MTT assay; format: functional
[28] = system: HEK293; experiment: Cytotoxicity against human HEK293 cells at 200 ug/mL after 48 hrs by MTT assay; format: functional
[29] = system: HEK293; experiment: Cytotoxicity against human HEK293 cells at 50 ug/mL after 72 hrs by MTT assay; format: functional
[30] = system: HEK293; experiment: Cytotoxicity against human HEK293 cells at 5 ug/mL after 24 hrs by MTT assay; format: functional
[31] = Cytotoxicity against monkey GMK cells at 10 ug/mL after 24 hrs by MTT assay; format: functional, Chlorocebus aethiops
[32] = system: HEK293; experiment: Cytotoxicity against human HEK293 cells at 100 ug/mL after 96 hrs by MTT assay; format: functional
[33] = system: HEK293; experiment: Cytotoxicity against human HEK293 cells at 5 ug/mL after 48 hrs by MTT assay; format: functional
[34] = system: Echovirus E9; experiment: Antiviral activity against Human echovirus 9 in GMK cells assessed as virus titre at 200 ug/mL after 1 hr; format: functional
[35] = Cytotoxicity against monkey GMK cells at 10 ug/mL after 48 hrs by MTT assay; format: functional, Chlorocebus aethiops
[36] = Cytotoxicity against monkey GMK cells at 25 ug/mL after 72 hrs by MTT assay; format: functional, Chlorocebus aethiops
[37] = Cytotoxicity against monkey GMK cells at 100 ug/mL after 48 hrs by MTT assay; format: functional, Chlorocebus aethiops
[38] = system: HEK293; experiment: Cytotoxicity against human HEK293 cells at 5 ug/mL after 120 hrs by MTT assay; format: functional
[39] = system: HEK293; experiment: Cytotoxicity against human HEK293 cells at 50 ug/mL after 48 hrs by MTT assay; format: functional
[40] = system: HEK293; experiment: Cytotoxicity against human HEK293 cells at 10 ug/mL after 24 hrs by MTT assay; format: functional
[41] = system: HEK293; experiment: Cytotoxicity against human HEK293 cells at 100 ug/mL after 24 hrs by MTT assay; format: functional
[42] = system: HEK293; experiment: Cytotoxicity against human HEK293 cells at 10 ug/mL after 48 hrs by MTT assay; format: functional
[43] = system: HEK293; experiment: Cytotoxicity against human HEK293 cells at 5 ug/mL after 72 hrs by MTT assay; format: functional
[44] = Cytotoxicity against monkey GMK cells at 100 ug/mL after 120 hrs by MTT assay; format: functional, Chlorocebus aethiops
[45] = Cytotoxicity against monkey GMK cells at 50 ug/mL after 72 hrs by MTT assay; format: functional, Chlorocebus aethiops
[46] = system: HEK293; experiment: Cytotoxicity against human HEK293 cells at 50 ug/mL after 24 hrs by MTT assay; format: functional
[47] = Cytotoxicity against monkey GMK cells at 2.5 ug/mL after 24 hrs by MTT assay; format: functional, Chlorocebus aethiops
[48] = Cytotoxicity against monkey GMK cells at 200 ug/mL after 96 hrs by MTT assay; format: functional, Chlorocebus aethiops
[49] = system: HEK293; experiment: Cytotoxicity against human HEK293 cells at 2.5 ug/mL after 96 hrs by MTT assay; format: functional
[50] = Cytotoxicity against monkey GMK cells at 10 ug/mL after 120 hrs by MTT assay; format: functional, Chlorocebus aethiops
[51] = Cytotoxicity against monkey GMK cells at 50 ug/mL after 120 hrs by MTT assay; format: functional, Chlorocebus aethiops
[52] = Cytotoxicity against monkey GMK cells at 2.5 ug/mL after 96 hrs by MTT assay; format: functional, Chlorocebus aethiops
[53] = Cytotoxicity against monkey GMK cells at 2.5 ug/mL after 48 hrs by MTT assay; format: functional, Chlorocebus aethiops
[54] = system: HEK293; experiment: Cytotoxicity against human HEK293 cells at 2.5 ug/mL after 48 hrs by MTT assay; format: functional
[55] = Cytotoxicity against monkey GMK cells at 10 ug/mL after 72 hrs by MTT assay; format: functional, Chlorocebus aethiops
[56] = Cytotoxicity against monkey GMK cells at 25 ug/mL after 24 hrs by MTT assay; format: functional, Chlorocebus aethiops
[57] = Cytotoxicity against monkey GMK cells at 25 ug/mL after 120 hrs by MTT assay; format: functional, Chlorocebus aethiops

## CCOC(=O)CC1NN=C2N(CCN2c2ccc(C)cc2)C1=O (centres undefined)
[1]
  Activity: 0%
[2]
  Activity: 90%
[3]
  Activity: 100%
[4]
  Activity: 15%
[5]
  Activity: 100%
[6]
  Activity: 15%
[7]
  Activity: 100%
[8]
  Activity: 95%
[9]
  Activity: 0%
[10]
  Activity: 100%
[11]
  Activity: 75%
[12]
  Activity: 80%
[13]
  Activity: 100%
[14]
  Activity: 90%
[15]
  Activity: 30%
[16]
  Activity: 80%
[17]
  Activity: 70%
[18]
  Activity: 70%
[19]
  Activity: 70%
[20]
  Activity: 70%
[21]
  TCID50: 3.67 mL⁻¹
[22]
  Activity: 100%
[23]
  Activity: 95%
[24]
  Activity: 15%
[25]
  Activity: 100%
[26]
  Activity: 0%
[27]
  Activity: 100%
[28]
  Activity: 20%
[29]
  Activity: 80%
[30]
  Activity: 100%
[31]
  Activity: 100%
[32]
  Activity: 70%
[33]
  Activity: 100%
[34]
  TCID50: 3.67 mL⁻¹
[35]
  Activity: 100%
[36]
  Activity: 85%
[37]
  Activity: 80%
[38]
  Activity: 100%
[39]
  Activity: 80%
[40]
  Activity: 100%
[41]
  Activity: 70%
[42]
  Activity: 100%
[43]
  Activity: 100%
[44]
  Activity: 70%
[45]
  Activity: 80%
[46]
  Activity: 90%
[47]
  Activity: 100%
[48]
  Activity: 0%
[49]
  Activity: 100%
[50]
  Activity: 90%
[51]
  Activity: 70%
[52]
  Activity: 100%
[53]
  Activity: 100%
[54]
  Activity: 100%
[55]
  Activity: 100%
[56]
  Activity: 100%
[57]
  Activity: 70%

## COC(=O)CC1NN=C2N(CCN2c2cccc(Cl)c2)C1=O (centres undefined)
[1]
  Activity: 0%
[2]
  Activity: 100%
[3]
  Activity: 100%
[4]
  Activity: 30%
[5]
  Activity: 98%
[6]
  Activity: 35%
[7]
  Activity: 100%
[8]
  Activity: 95%
[9]
  Activity: 10%
[10]
  Activity: 100%
[11]
  Activity: 90%
[12]
  Activity: 50%
[13]
  Activity: 100%
[14]
  Activity: 100%
[15]
  Activity: 98%
[16]
  Activity: 95%
[17]
  Activity: 55%
[18]
  Activity: 20%
[19]
  Activity: 90%
[20]
  Activity: 90%
[21]
  TCID50: 3 mL⁻¹
[22]
  Activity: 100%
[23]
  Activity: 95%
[24]
  Activity: 35%
[25]
  Activity: 100%
[26]
  Activity: 20%
[27]
  Activity: 100%
[28]
  Activity: 40%
[29]
  Activity: 95%
[30]
  Activity: 100%
[31]
  Activity: 100%
[32]
  Activity: 50%
[33]
  Activity: 100%
[34]
  TCID50: 3.33 mL⁻¹
[35]
  Activity: 100%
[36]
  Activity: 95%
[37]
  Activity: 50%
[38]
  Activity: 100%
[39]
  Activity: 95%
[40]
  Activity: 100%
[41]
  Activity: 98%
[42]
  Activity: 100%
[43]
  Activity: 100%
[44]
  Activity: 0%
[45]
  Activity: 95%
[46]
  Activity: 95%
[47]
  Activity: 100%
[48]
  Activity: 0%
[49]
  Activity: 100%
[50]
  Activity: 100%
[51]
  Activity: 90%
[52]
  Activity: 100%
[53]
  Activity: 100%
[54]
  Activity: 100%
[55]
  Activity: 100%
[56]
  Activity: 100%
[57]
  Activity: 95%
